The source of these data is patent US12668589B2, “N-formamidopyrazoline derivative as P2X3 receptor antagonist and use thereof” (HANGZHOU WESTAN PHARMACEUTICAL TECHNOLOGY CO., LTD, priority 2020, dated 2026).

In this experiment the target is T1, human P2X3 (Homo sapiens, UniProt P56373).
T1 sequence (P56373 1-397): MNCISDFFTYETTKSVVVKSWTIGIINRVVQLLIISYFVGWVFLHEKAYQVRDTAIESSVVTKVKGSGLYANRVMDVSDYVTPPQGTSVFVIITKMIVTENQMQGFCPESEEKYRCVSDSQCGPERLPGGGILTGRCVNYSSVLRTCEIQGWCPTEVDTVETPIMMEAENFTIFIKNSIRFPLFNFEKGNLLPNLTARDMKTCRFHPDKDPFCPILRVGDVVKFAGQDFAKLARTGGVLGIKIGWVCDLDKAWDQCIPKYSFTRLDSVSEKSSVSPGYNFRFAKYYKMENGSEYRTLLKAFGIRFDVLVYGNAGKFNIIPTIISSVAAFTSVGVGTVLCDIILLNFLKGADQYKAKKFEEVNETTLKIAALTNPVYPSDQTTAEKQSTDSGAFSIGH
Kind of experiment: cell-based.
On to `Cc1ccc(C2=NN(C(=O)N[C@H](C)c3ccc(Cl)cc3)C[C@@H]2N2CCN(C)CC2=O)cc1` [Compound 2, (S)-4-(4-methyl-2-oxopiperazin-1-yl)-3-(4-methylphenyl)-N-((R)-1-(4-chlorophenyl)ethyl)-4,5-dihydro-1H-pyrazol-1-carboxamide], for which the 50% inhibitory concentration (IC50) was found to be 7540 nM.
Under `Cc1ccc(C2=NN(C(=O)N[C@H](C)c3cnc(C(F)(F)F)nc3)C[C@@H]2N2CCOCC2=O)cc1` [Compound 3] stands 215 nM; under `Cc1ccc(C2=NN(C(=O)N[C@H](C)c3cnc(C(F)(F)F)nc3)C[C@H]2N2CCOCC2=O)cc1` [Compound 3a, (R)-4-(3-oxomorpholin-4-yl)-3-(4-methylphenyl)-N-((R)-1-(2-(trifluoromethyl)pyrimidin-5-yl)ethyl)-4,5-dihydro-1H-pyrazol-1-carboxamide], 318 nM.
The compound `CC(=O)N(C)[C@H]1CN(C(=O)N[C@H](C)c2ccc(C(F)(F)F)cc2)N=C1c1ccc(C)cc1` [Compound 5] showed an IC50 of 409 nM.
Under `CC(=O)N(C)[C@@H]1CN(C(=O)N[C@H](C)c2ccc(C(F)(F)F)cc2)N=C1c1ccc(C)cc1` [Compound 5a, (R)-4-(N-methylacetamido)-3-(4-methylphenyl)-N-((R)-1-(4-(trifluoromethyl)phenyl)ethyl)-4,5-dihydro-1H-pyrazol-1-carboxamide] stands 353 nM.
Under `COc1ccc([C@@H](C)NC(=O)N2C[C@H](N3CCOC3=O)C(c3ccc(C)cc3)=N2)cc1OC` [Compound 6] stands 1230 nM; under `Cc1ccc(C2=NN(C(=O)N[C@H](C)c3ccc4c(c3)OCO4)C[C@@H]2N2CCCC2=O)cc1` [Compound 7, (S)-4-(2-oxopyrrolidin-1-yl)-3-(4-methylphenyl)-N-((R)-1-(3,4-(methylenedioxy)phenyl)ethyl)-4,5-dihydro-1H-pyrazol-1-carboxamide], 985 nM.
`CC(=O)N1CCN([C@H]2CN(C(=O)N[C@H](C)c3ccc(C#N)cc3)N=C2c2ccc(C)cc2)C1=O` [Compound 8, (S)-4-(3-acetyl-2-oxoimidazolidin-1-yl)-3-(4-methylphenyl)-N-((R)-1-(4-cyanophenyl)ethyl)-4,5-dihydro-1H-pyrazol-1-carboxamide] displayed a half-maximal inhibitory concentration (IC50) of 793 nM.
As for `COc1ccc([C@@H](C)NC(=O)N2C[C@H](N3CCCC3=O)C(c3ccc(C)cc3)=N2)nc1` [Compound 9], 529 nM corresponded to half-maximal inhibition (IC50).
Compound `Cc1ccc(C2=NN(C(=O)N[C@H](C)c3ccc(C(F)(F)F)cn3)C[C@@H]2N2CCCC2=O)cc1` [Compound 10] returned a half-maximal inhibitory concentration (IC50) of 216 nM.
The same measure for `Cc1ccc(C2=NN(C(=O)N[C@H](C)c3ccc(C(F)(F)F)cn3)C[C@H]2N2CCCC2=O)cc1` [Compound 10a]: 136 nM; for `CC(=O)N(C)[C@H]1CN(C(=O)N[C@H](C)c2ccc(Cl)nc2)N=C1c1ccc(C)cc1` [Compound 11]: 357 nM.
Compound `CC(=O)N(C)[C@@H]1CN(C(=O)N[C@H](C)c2ccc(Cl)nc2)N=C1c1ccc(C)cc1` [Compound 11a] returned a concentration for half-maximal inhibition (IC50) of 281 nM.
The same measure for `Cc1ccc(C2=NN(C(=O)N[C@H](C)c3cnc(F)c(F)c3)C[C@@H]2N2CCOC2=O)cc1` [Compound 12]: 436 nM; for `Cc1ccc(C2=NN(C(=O)N[C@H](C)c3cnc(F)c(F)c3)C[C@H]2N2CCOC2=O)cc1` [Compound 12a]: 322 nM.
With `Cc1ccc(C2=NN(C(=O)N[C@H](C)c3ccc(OC(F)(F)F)nc3)C[C@@H]2N2CCCC2=O)cc1` [Compound 13], the IC50 was determined as 257 nM.
`Cc1ccc(C2=NN(C(=O)N[C@H](C)c3ccc(OC(F)(F)F)nc3)C[C@H]2N2CCCC2=O)cc1` [Compound 13a] returned an IC50 of 329 nM.
As for `COc1ccc([C@@H](C)NC(=O)N2C[C@H](N3CCOCC3)C(c3ccc(F)cc3)=N2)cn1` [Compound 14, (S)-4-(morpholin-4-yl)-3-(4-fluorophenyl)-N-((R)-1-(6-methoxypyridin-3-yl)ethyl)-4,5-dihydro-1H-pyrazol-1-carboxamide], 736 nM corresponded to half-maximal inhibition (IC50).
